Measurements taken from article PMC10096391, “Discovery of N,4-Di(1H-pyrazol-4-yl)pyrimidin-2-amine-Derived CDK2 Inhibitors as Potential Anticancer Agents: Design, Synthesis, and Evaluation” (Molecules, 2023).

Tests used:
Type in all cases: cell-based
[1] = tested on: Cov318 ovarian cancer cells; test: Cell viability assay (MTT/resazurin), Cov318; conditions: read-out: Antiproliferative Activity, GI50
Source text: (§1) Cancer cell lines derived from leukemia (MV4-11 and U937), breast (MCF7 (Rb-positive) and MDA-MB-231(Rb-negative)), and ovarian (A2780, OVCAR5, OAW28, OV90, Cov318, and Cov504) cancers, and glioblastoma (U87, T98G and U251) were acquired from the cell bank at Drug Discovery and Development, University of South Australia, and cultured according to the American Type Culture Collection (ATCC) recommendation in Roswell Park Memorial Institute (RPMI)-1640, Dulbecco’s Modified Eagle’s Medium (DMEM), or Minimum Essential Media (MEM), with 10% fetal bovine serum (Sigma-Aldrich, Castle Hill, NSW, Australia) within a humidified incubator at 37 °C in the presence of 5% CO2.
(§2) The MTT (Life Technologies, Mulgrave, VIC, Australia) and resazurin (Sigma-Aldrich) assays were used to determine the antiproliferative activities of the compounds initially at 1 µM against the cancer cell lines stated above.

OVCAR5 cells [2] = test: Cell cycle analysis by flow cytometry, OVCAR5; conditions: 48 h
Procedure: (§3) The effect of the compounds on cell cycle distribution was evaluated following a previously reported method. Briefly, six-well plates (Sigma-Aldrich, NSW, Australia) were seeded with about 1–2 × 10^5 cells/well in 2 mL growth medium, incubated at 37 °C and 5% CO2 overnight, and treated with various concentrations of the test compounds and incubated for 48 h. The wells were collected by trypsinization, transferred into fluorescence-activating cell sorting (FACS) tubes, washed with 1 × phosphate-buffered saline (1 × PBS) twice, fixed in 70% (v/v) ice-cold ethanol for 15 min, and centrifuged at 300× g for 5 min. The cell pellets were then collected, stained with 200 µL of the cell cycle solution (comprising 50.0 μg/mL PI, 0.1 mg/mL RNase A, and 0.05% Triton X-100), and incubated for 1.5 h at room temperature in the dark. Finally, the DNA content was determined by a flow cytometer (CytoFLEX) and analyzed by CytExpert 2.1 software (Beckman Coulter, Brea, CA, USA).

[3] = tested on: OAW28 ovarian cancer cells; test: Cell viability assay (MTT/resazurin), OAW28; conditions: Homo sapiens, OAW-28, read-out: Antiproliferative Activity, GI50
Source text: as §1, §2

[4] = tested on: OVCAR5 ovarian cancer cells; test: Cell viability assay (MTT/resazurin), OVCAR5; conditions: Homo sapiens, OVCAR-5, read-out: Antiproliferative Activity, GI50
Source text: as §1, §2

[5] = tested on: panel of 13 cancer cell lines; test: Antiproliferative activity, cancer cell line panel; conditions: all cancer cell lines tested; read-out: GI50 range over the cancer cell line panel
Source text: as §1, §2

A2780 cells [6] = test: Annexin V/PI apoptosis assay, A2780; conditions: 48 h
Procedure: Annexin V-fluorescein isothiocyanate (FITC) apoptosis detection kit I (consisting of a ten-time stock solution of binding buffer, FITC–annexin V, and PI staining solution) was used to determine the effect of the compounds on cancer cell survival as previously reported. Briefly, six-well plates (Sigma-Aldrich, NSW, Australia) were seeded with about 1–2 × 10^5 cells/well in 2 mL growth medium, incubated at 37 °C and 5% CO2 overnight, treated with various concentrations of the test compounds, and incubated for 48 h. The wells were collected by trypsinization, transferred into FACS tubes, washed twice with 1 × PBS, and centrifuged at 300× g for 5 min. The pellets were then suspended in 100 µL of 1 × binding buffer and incubated in the dark with 3 µL of PI and 3 µL of FITC-conjugated annexin V solutions for 15 min. Finally, 200 µL of binding buffer was added to each sample and analyzed by the CytoFLEX cytometer. The extent of apoptotic cell death was quantified as the sum of the percentages of early apoptotic cells (annexin V-positive and PI-negative) and late apoptotic cells (both annexin–V- and PI-positive) and presented graphically as a contour diagram relative to the untreated control.

OVCAR5 cells [7] = test: Western blot analysis of OVCAR5 cells
Procedure: Western blot analysis of the compounds was carried out as previously reported. The antibodies were purchased from Cell Signaling Technology (Danvers, MA, USA).

OVCAR5 cells [8] = test: Colony formation (crystal violet), OVCAR5; conditions: OVCAR5, 10 days; 15 at 0.5 and 2 µM, CYC065 at 0.5 µM
Procedure: Briefly, ovarian cancer cells (i.e., A2780, OVCAR5, and OV90) seeded in six-well plates were adhered for 6 h and treated with 15. The medium that contained the compound was then changed every 72 h. Ten days after treatment, the cells were washed with PBS, fixed, and stained with crystal violet staining solution (0.05% crystal violet, 1% formaldehyde, 1% PBS, and 1% ethanol), and colonies were quantified using ImageJ software (National Institute of Health, Maryland, USA), with data presented as percentages of the control cells.

A2780 cells [9] = test: Cell cycle analysis by flow cytometry, A2780; conditions: A2780, 2 µM, 48 h
Procedure: as §3

U87 glioblastoma cells = test: Cell viability assay (MTT/resazurin), U87; conditions: read-out: Antiproliferative Activity, GI50
Source text: as §1, §2

GI50 [1]: 488 nM
GI50 [3]: 534 nM
GI50 [4]: 150 nM
GI50 [5]: 127 to 560 nM
GI50 (U87 glioblastoma cells): 560 nM
SMILES: Cn1cc(-c2nc(Nc3cn[nH]c3)ncc2Cl)cn1 [Compound 15, 5-Chloro-4-(1-methyl-1H-pyrazol-4-yl)-N-(1H-pyrazol-4-yl)pyrimidin-2-amine]
increment in the subpopulation of G2/M cells compared to the vehicle control (OVCAR5 cells [2]; OVCAR5, 0.5 µM): 39%
G2/M cells (OVCAR5 cells [2]; OVCAR5, 2 µM): 53%
S-phase cells (OVCAR5 cells [2]; OVCAR5, 2 µM): 26%
apoptosis (annexin V positive, early + late) (A2780 cells [6]; A2780, 0.5 µM): 47%
apoptosis (annexin V positive, early + late) (A2780 cells [6]; A2780, 2 µM): 49%
viability at 0.5 µM (A2780 cells [6]; Homo sapiens, A2780, 0.5 µM, read-out: Q1-LL, viable cells): 52.7%
viability at 2 µM (A2780 cells [6]; Homo sapiens, A2780, 2 µM, read-out: Q1-LL, viable cells): 50.5%
p-FAK(Ser732) level (CDK5 kinase activity in cells) (OVCAR5 cells [7]; OVCAR5, 2 µM, 48 h): completely abolished
p-RNAPol-II(Ser2) level (CDK9 kinase activity in cells) (OVCAR5 cells [7]; OVCAR5, 2 µM, 48 h): completely abolished
p-Rb(Thr821) level (CDK2 kinase activity in cells) (OVCAR5 cells [7]; OVCAR5, 2 µM, 48 h): completely abolished
anti-apoptotic protein MCL1 (OVCAR5 cells [7]; OVCAR5, 48 h): downregulation
caspase-3 (OVCAR5 cells [7]; OVCAR5, 48 h): cleavage
phosphorylated histone H2AX (p-H2AX), DNA damage marker (OVCAR5 cells [7]; OVCAR5, 48 h): appearance
effect on colony formation (OVCAR5 cells [8]): inhibited
S-phase cells (A2780 cells [9]): 26%
